Experimental data published in the supplement of paper PMC10933113.
Where a name gives a salt, the structure may show the parent alone. ± gives the uncertainty stated by the source.

Assays:
THP-1 [1] = experiment: efficacy of IL-8 induction relative to DMSO (% activity); higher = stronger induction; details: exposure time: 18 h
[2] = system: cysteine peptide Ac-RFAACAA-COOH; experiment: AC50 of cysteine peptide concentration-response (direction given by sign of efficacy); higher = less potent; details: incubation time: 24 h
[3] = system: cysteine peptide Ac-RFAACAA-COOH; experiment: efficacy of cysteine peptide change (negative = depletion) (% activity); higher = less depletion; details: incubation time: 24 h
[4] = system: KeratinoSens (HaCaT ARE-luciferase) cells; experiment: cytotoxicity AC50 (CellTiter-Fluor viability); higher = less cytotoxic; details: exposure time: 24 h
[5] = system: lysine peptide Ac-RFAAKAA-COOH; experiment: efficacy of lysine peptide change (negative = depletion) (% activity); higher = less depletion; details: incubation time: 24 h
THP-1 [6] = experiment: AC50 of IL-8 secretion induction; higher = less potent; details: exposure time: 18 h
[7] = system: KeratinoSens (HaCaT ARE-luciferase) cells; experiment: efficacy of ARE luciferase induction relative to DMSO (% activity over DMSO); higher = stronger induction; details: exposure time: 24 h
[8] = system: KeratinoSens (HaCaT ARE-luciferase) cells; experiment: AC50 of Nrf2/ARE luciferase induction; higher = less potent; details: exposure time: 24 h

Row | AC50 [2] [µM] | efficacy of cysteine peptide change [3] | efficacy of lysine peptide change [5] | SMILES | efficacy of IL-8 induction (THP-1 [1]) | cytotoxicity AC50 [4] [µM] | AC50 of IL-8 secretion induction (THP-1 [6]) [µM] | efficacy of ARE luciferase induction [7] | AC50 of Nrf2/ARE luciferase induction [8] [µM]
1 | 0.65 ± 0.18 | -90.5 ± 5.6 | -0.22 ± 12 | O=c1[nH]sc2cc(Cl)ccc12 [Ticlatone] | 92.2 ± 7.7 | 13.2 ± 2.4 | 21.6 | 55.4 ± 80 | –
2 | – | -11.2 ± 4.1 | -8.95 ± 16 | Cc1ccc(O)c2ncccc12 [Tiliquinol] | 117 ± 19 | 2.47 ± 0.62 | 4.38 | -35.2 ± 3.8 | –
3 | – | -13.7 ± 2.3 | 121 ± 16 | Cc1cc(C2(c3cc(C)c(O)cc3C)OS(=O)(=O)c3ccccc32)c(C)cc1O [p-Xylenol blue] | 45.6 ± 8.1 | 28.6 ± 6 | 52.2 | 0 | –
4 | 4.18 ± 2 | -94.9 ± 1.7 | 36.4 ± 15 | CN(C)c1ccc(C(=C2C=CC(=[N+](C)C)C=C2)c2ccccc2)cc1 [Malachite green oxalate*] | 47.7 ± 7.8 | 8.91 | 15.3 | -37.3 ± 7.1 | –
5 | 34.8 ± 13 | -112 ± 5.2 | -30.8 ± 9.1 | CC(C)(C)c1cc(O)ccc1O [tert-Butylhydroquinone] | 114 ± 90 | – | 39.8 | 293 ± 55 | 33
6 | – | -3.5 ± 6.1 | 16.7 ± 23 | O=C(N/N=C/c1ccccc1O)c1ccncc1 [Salinazid] | 45.6 ± 14 | 4.76 ± 1.3 | 20 | -34.3 ± 30 | –
7 | 11.9 ± 20 | 88.8 ± 300 | 115 ± 4.9 | Nc1ccc2cc3ccc(N)cc3nc2c1 [Proflavin hemisulfate#] | 68 ± 3.1 | – | 35.5 | 390 ± 270 | 7.94
8 | – | 0 | 50.4 ± 6.8 | CCCOc1ccc2[nH]c(NC(=O)OC)nc2c1 [Oxibendazole] | 36.3 ± 9.3 | 2.73 ± 0.38 | 27.7 | 30.2 ± 9.6 | –
9 | – | 5.83 ± 10 | -53.1 ± 24 | S=C(NC1CCCCC1)NC1CCCCC1 [N,N'-Dicyclohexylthiourea] | 84.8 ± 36 | 53.1 ± 25 | 85.9 | 82 ± 95 | –
10 | – | -3.96 ± 6.9 | 35 ± 20 | O=c1n(CC2CO2)c(=O)n(CC2CO2)c(=O)n1CC1CO1 (centres undefined) [Triglycidyl isocyanurate] | 157 ± 24 | 28.3 ± 3.2 | 36.9 | 90.3 ± 20 | 14.1

The remaining lines, values behind:

Row | SMILES | AC50 [2] [µM] | efficacy of cysteine peptide change [3] | efficacy of lysine peptide change [5] | efficacy of IL-8 induction (THP-1 [1]) | cytotoxicity AC50 [4] [µM] | AC50 of IL-8 secretion induction (THP-1 [6]) [µM] | efficacy of ARE luciferase induction [7] | AC50 of Nrf2/ARE luciferase induction [8] [µM]
11 | CC(O)C#CC(C)O (centres undefined) [Hex-3-yne-2,5-diol] | 4.16 ± 0.53 | -101 ± 4.2 | -5.13 ± 15 | 62.2 ± 17 | 32.9 ± 2.2 | 41.4 | -35.2 ± 7.1 | –
12 | CC(C)=CCC1C(=O)N(c2ccccc2)N(c2ccccc2)C1=O [Feprazone] | – | -88.7 ± 16 | 0 | 60.5 ± 9.2 | 40 ± 4.6 | 85.9 | 281 ± 320 | 46
13 | c1ccc2sc(SNC3CCCCC3)nc2c1 [N-Cyclohexyl-2-benzothiazolesulfenamide] | 11.1 ± 3.1 | -89.9 ± 7 | 24.6 ± 4.2 | 101 ± 42 | – | 85.9 | 135 ± 140 | –
14 | Clc1nc(C(Cl)(Cl)Cl)c(Cl)c(Cl)c1Cl [2,3,4,5-Tetrachloro-6-(trichloromethyl)pyridine] | – | -2.03 ± 3.5 | 1.85 ± 3.2 | 33.7 ± 5.8 | 37.1 ± 4.7 | 47.3 | 43.7 ± 28 | –
15 | CCS(=O)(=O)CCSP(=O)(OC)OC [Demeton-S-methylsulphon] | – | -43.5 ± 12 | -8 ± 20 | 108 ± 5.1 | 22.5 ± 2.6 | 30.7 | 28.1 ± 59 | 19
16 | COc1cc(/C=C2\CCC/C(=C\c3ccc(O)c(OC)c3)C2=O)ccc1O [Cyclovalone] | 0.87 ± 0.35 | -50.1 ± 12 | 15.9 ± 15 | 44.5 ± 6.9 | 22.5 ± 2.6 | 40 | 242 ± 83 | 15.8
17 | O=[N+]([O-])c1cc(C(F)(F)F)c(Cl)c([N+](=O)[O-])c1Cl [2,4-Dichloro-1,3-dinitro-5-(trifluoromethyl)benzene] | 23.8 ± 18 | -83.7 ± 9 | 251 ± 34 | 64.7 ± 13 | 26.1 ± 1.8 | 17.2 | -10.8 ± 42 | –
18 | CNc1ccc(O)cc1 [4-(Methylamino)phenol Sulfate] | 0.16 ± 0.06 | -82.7 ± 14 | -10.9 ± 3 | 8.27 ± 13 | 27.3 ± 3.8 | 46.7 | 65.8 ± 4.2 | –
19 | Nc1ncn([C@@H]2O[C@H](CO)[C@@H](O)[C@H]2O)c(=O)n1 [5-Azacytidine] | – | 4.3 ± 7.4 | 6.9 ± 7.1 | 55 ± 5.8 | 17.8 ± 6.3 | 41.6 | 275 ± 140 | 18.9
20 | CCN(CC)c1ccc(C(=O)c2ccccc2C(=O)O)c(O)c1 [2-[4-(Diethylamino)-2-hydroxybenzoyl]benzoic acid] | – | 1.78 ± 13 | -5.24 ± 15 | 75.5 ± 11 | 30.5 ± 2 | 38.4 | 56.6 ± 46 | –
21 | Cn1sccc1=O [2-Methyl-4-isothiazolin-3-one hydrochloride] | 2.42 ± 0.16 | -98.5 ± 3.1 | -0.97 ± 8.8 | 50.4 ± 5.3 | 25.2 ± 2.9 | 35.9 | 118 ± 32 | 13.7
22 | c1cc(N(CC2CO2)CC2CO2)ccc1Cc1ccc(N(CC2CO2)CC2CO2)cc1 (centres undefined) [4,4'-Methylenebis(N,N-diglycidylaniline)] | – | – | – | 103 ± 16 | 35.5 | 37.1 | 57 ± 38 | 15.8
23 | c1cc(N(CC2CO2)CC2CO2)ccc1OCC1CO1 (centres undefined) [4-(Diglycidylamino)phenyl glycidyl ether] | 20.3 ± 16 | -36.5 ± 12 | 41.8 ± 1.5 | 62.3 ± 18 | 63.9 ± 12 | 76.9 | 103 ± 58 | 32.9
